This is an account of results in patent US12534699B2, “Method for promoting growth of bacteria of genus Bifidobacterium” (KABUSHIKI KAISHA YAKULT HONSHA, priority 2019, dated 2026).

Common to all, as to format: cell-based
The subject of experiment [1] is Lactobacillus acidophilus YIT 0198. As to the kind of experiment: Culture of YIT 0198 in skimmed milk culture medium with L-cystine or L-cysteine. The settings on record: YIT 0198, skimmed milk culture medium, 0.05 (w/v) %, 37° C., 12 hours, FIG. 1. The protocol: Bifidobacterium breve YIT 12272 (hereinafter, referred to as BbY), Bifidobacterium bifidum YIT 10347 (hereinafter, referred to as BF-1), Lactobacillus casei YIT 9029 (hereinafter, referred to as YIT 9029), and Lactobacillus acidophilus YIT 0198 (hereinafter, referred to as YIT 0198) were used.
A skimmed milk powder (ABC, manufactured by MEGMILK SNOW BRAND Co., Ltd.) was dissolved in RO water at 12% (w/v), the solution was dispensed in 10 mL aliquots in a rimmed medium-sized test tube while replacing the headspace with nitrogen gas and sealed with a butyl rubber stopper. Subsequently, the solution was sterilized by heat in an autoclave (SX-500, manufactured by Tomy Seiko Co., Ltd.) at 115° C. for 30 minutes to provide a skimmed milk culture medium (additive-free culture medium). […]
The pH of a culture medium or a bacterial solution was measured using a desk-top pH meter (F52, manufactured by HORIBA, Ltd.). […]
Regardless of the bacterial strain, a bacterial solution was appropriately diluted with a 0.85% (w/v) sodium chloride aqueous solution (physiological saline solution). […] The grown colonies were counted as the viable cell count. […] Colonies were counted using a colony counter ProtoCOL (manufactured by Synoptics Ltd.).

Experiment [2] relates to Bifidobacterium bifidum YIT 10347 (BF-1). As to the kind of experiment: Culture of BF-1 in whey culture medium with L-cystine or L-cysteine. The settings on record: BF-1, whey simultaneous heating culture medium, 12 hours. The protocol:
(§1) A skimmed milk powder was dissolved in RO water at 12% (w/v), and the 12% (w/v) skimmed milk was adjusted to a pH of 4.6 with 5 N HCl, followed by centrifugation at 3,000×g for 5 minutes. Subsequently, the supernatant was adjusted to a pH of 6.5 with 5 N NaOH and was centrifuged at 10,000×g for 15 to 30 minutes. The supernatant was dispensed in 10 mL aliquots in a rimmed medium-sized test tube while replacing the headspace with nitrogen gas and sealed with a butyl rubber stopper. Subsequently, the supernatant was sterilized by heat in an autoclave at 115° C. for 30 minutes to provide a whey culture medium separated before heating. In addition, as in the skimmed milk culture medium, simultaneous heating culture medium was prepared in anaerobic conditions by adding L-cystine or L-cysteine before heating and then performing heat sterilization. The addition concentration of L-cystine or L-cysteine was adjusted to 0.001, 0.003, 0.005, 0.01, 0.03, 0.05, or 0.1% (w/v) as the final concentration.
(§2) Inoculation and culture were performed as in Example 1 except that only when BbY was cultured in the skimmed milk culture medium, the culture time was 9 hours.

Experiment [3] deals with Bifidobacterium breve YIT 12272 (BbY). As to the kind of experiment: Culture of BbY in whey culture medium with L-cystine or L-cysteine. The settings on record: for concentration at which the viable cell count was maximum: whey simultaneous heating culture medium, 12 hours. The protocol:
as §1, §2
As in Example 2, whey separated before heating and simultaneous heating culture media with L-cysteine was prepared. In addition, a culture medium in which L-cysteine was added after heat sterilization and immediately before inoculation (individual heating culture medium) was also prepared. The addition concentration of L-cysteine was 0.03 (w/v) % as the final concentration.
A skimmed milk powder was dissolved in RO water at 12% (w/v), and the 12% (w/v) skimmed milk was sterilized by heat in an autoclave at 115° C. for 30 minutes in anaerobic conditions by nitrogen gas and was then adjusted to a pH of 4.6 with 5 N HCl, followed by centrifugation at 3,000×g for 5 minutes. Subsequently, the supernatant was adjusted to a pH of 6.5 with 5 N NaOH and was centrifuged at 10,000×g for 15 to 30 minutes. The supernatant was dispensed in 10 mL aliquots in a pre-sterilized rimmed medium-sized test tube while replacing the headspace with nitrogen gas and sealed with a butyl rubber stopper to provide a whey culture medium separated after heating. In addition, as in the skimmed milk culture media of Example 1, in anaerobic conditions, a culture medium in which L-cysteine was added before heating and then heat sterilization was performed (simultaneous heating culture medium) and a culture medium in which addition was performed after heat sterilization and before adjustment to pH 4.6 (individual heating culture medium) were also prepared.
Inoculation and culture were performed as in Example 1.
Based on the viable cell counts in (iii), each viable cell count ratio was calculated by dividing the viable cell count in the simultaneous heating culture medium by the viable cell count in the individual heating culture medium.

Setting [4] is: whey separated after heating, L-cysteine, individual heating, culture time 9 h.
Where [5] appears, read: whey separated after heating, L-cysteine, individual heating, culture time 12 h.
Where [6] appears, read: whey separated after heating, L-cysteine, simultaneous heating, culture time 9 h.
[7] abbreviates: whey separated after heating, L-cysteine, simultaneous heating, culture time 12 h.
[8] abbreviates: whey separated before heating, L-cysteine 0.03 (w/v) %, individual heating, culture time 9 h.
[9] abbreviates: whey separated before heating, L-cysteine 0.03 (w/v) %, individual heating, culture time 12 h.
[10] abbreviates: whey separated before heating, L-cysteine 0.03 (w/v) %, simultaneous heating, culture time 9 h.
[11] abbreviates: whey separated before heating, L-cysteine 0.03 (w/v) %, simultaneous heating, culture time 12 h.

Structures are written as SMILES.

As to `N[C@@H](CSSC[C@H](N)C(=O)O)C(=O)O` [L-cystine], in experiment [1], the “growth promotion by addition” value is “not observed”. Also, the results for the “concentration at which the viable cell count was maximum” value in experiment [2] and in experiment [3] were 0.03 % (w/v) and 0.01 % (w/v), respectively.
For the compound `Cl.N[C@@H](CS)C(=O)O` [L-cysteine, L-cysteine hydrochloride], the “growth promotion by addition” value in experiment [1] was “not observed”. Also, the results for the “concentration at which the viable cell count was maximum” value in experiment [2] and in experiment [3] were 0.03 % (w/v) and 0.01 % (w/v), respectively. In addition, the Acidity in experiment [3] (setting [4]) worked out at 3.43 ml/9 g; in experiment [3] (setting [5]), 4.78 ml/9 g; in experiment [3] (setting [6]) it was 4.23 ml/9 g; in experiment [3] (setting [7]), 7.28 ml/9 g; in experiment [3] (setting [8]) it was 2.15 ml/9 g; in experiment [3] (setting [9]) it was 2.55 ml/9 g. For the same compound, the Acidity in experiment [3] (setting [10]) is 2.15 ml/9 g; in experiment [3] (setting [11]) it was 2.29 ml/9 g. For the same compound, the Viable cell count in experiment [3] (setting [4]) is reported as 8.89 × 10^8 CFU/ml; in experiment [3] (setting [5]) it was 1.32 × 10^9 CFU/ml; in experiment [3] (setting [6]), 1.29 × 10^9 CFU/ml; in experiment [3] (setting [7]), 2.22 × 10^9 CFU/ml; in experiment [3] (setting [8]), 1.24 × 10^8 CFU/ml; in experiment [3] (setting [9]), 1.42 × 10^8 CFU/ml. Moreover, the Viable cell count in experiment [3] (setting [10]) is 2.53 × 10^8 CFU/ml; in experiment [3] (setting [11]), 3.29 × 10^8 CFU/ml. Besides, the pH in experiment [3] (setting [4]) was found to be 5.14; in experiment [3] (setting [5]), 4.81; in experiment [3] (setting [6]) it was 4.85; in experiment [3] (setting [7]), 4.32; in experiment [3] (setting [8]) it was 4.97; in experiment [3] (setting [9]), 4.82. Moreover, the pH came out at 5.01 in experiment [3] (setting [10]) and 4.85 in experiment [3] (setting [11]). For the same compound, the “Viable cell count ratio (simultaneous/individual)” value is 1.45 in experiment [3] (whey separated after heating, culture time 9 h); 1.68 in experiment [3] (whey separated after heating, culture time 12 h); 2.04 in experiment [3] (whey separated before heating, culture time 9 h); 2.31 in experiment [3] (whey separated before heating, culture time 12 h).
